The values that follow come from patent US11447577B2, “Cyclodextrin based polymers, methods, compositions and applications thereof” (priority 2016, dated 2022).

In data set [1] the test system is Npc1^nih mice. As to the kind of experiment: Efficacy study in Npc1^nih mouse model (body weight, balance beam test, survival). The class given is in vivo. Conditions: HPβCD 4 mg/g s.c. weekly starting at PN7. As to the method: Npc1^nih mouse model is a model for an early onset and faster progressing human diseases. This mouse model arises from the insertion of an active retrotransposon, a spontaneous mutation, which generated a frameshift resulting in a “knock out” of Npc1 gene: small amount of truncated Npc1 mRNA and no protein.
Npc1^nih mice received Polymer B (0.8 mg/g body weight) via injection (s.c.) at the scruff of the neck at PN4, PN7, and PN14. Another group of Npc1^nih mice received HPβCD (4 mg/g body weight; obtained from Sigma-Aldrich and used as received, CAS: 128446-35-5) via injected (s.c.) weekly starting at PN7. Control mice received PBS (sham). Mean volume of the injection was between 50 to 100 μL according to mice size. The body weight, motor behaviour, and survival rate of each group of mice were analyzed.
Example 5 was repeated for Npc1^nih mice receiving Polymer A (0.4 mg/g body weight) via injected (s.c.) weekly starting at PN7 and ending at PN70. The body weight and motor behaviours were analyzed. The results of these analyses were compared to the control mice results from Example 5. […]
The effects of various cyclodextrin polymers, doses, and injection schedules were tested on Npc1^nih mice. […] The body weight, motor behaviour, and survival rate of each group of mice were analyzed.

Data set [2] in a line: in vivo. The settings on record: mouse, sc, 500 mg/kg. Further details: species or system mice. On the procedure: The effects of various cyclodextrin polymers were tested on WT mice. WT mice were injected with a single sub-cutaneous dose of 500 mg/kg of HPbCD, Polymer A, or Polymer B. PK measurements were taken every 2 hours via HPLC-UV measurements of mouse plasma. FIG. 28 presents the half-life results of this experiment. […] The recovery was 90% from plasma and tissues.

Data set [3] concerns nmf164 mice. The settings on record: 4000 mg/kg; cited from earlier work.

Turning to `CC(O)COC[C@H]1O[C@@H]2O[C@H]3[C@H](O)[C@@H](O)[C@@H](O[C@H]4[C@H](O)[C@@H](O)[C@@H](O[C@H]5[C@H](O)[C@@H](O)[C@@H](O[C@H]6[C@H](O)[C@@H](O)[C@@H](O[C@H]7[C@H](O)[C@@H](O)[C@@H](O[C@H]8[C@H](O)[C@@H](O)[C@@H](O[C@H]1[C@H](O)[C@H]2O)O[C@@H]8COCC(C)O)O[C@@H]7COCC(C)O)O[C@@H]6COCC(C)O)O[C@@H]5COCC(C)O)O[C@@H]4COCC(C)O)O[C@@H]3COCC(C)O` (stereo partly drawn) [HPβCD, Hydroxypropyl-β-cyclodextrin], the “Body weight and motor behaviour assessment together (rescuing efficacy)” value in data set [1] is listed as “rescuing efficacy”. In addition, the Survival in data set [1] (control about 10-11 weeks) is listed as 16-17 weeks. The bioavailability in data set [2] came out at 42%. In addition, the Median survival in data set [3] was 175 to 185 days.

A word on the bioavailability: it is the share of a dose that reaches the circulation, judged against a reference dose that is usually intravenous. A lower bioavailability goes with little systemic uptake.
